The numbers were not newly measured in patent publication US4698328A, “Method of increasing bone mass” (The General Hospital Corporation, priority 1986, dated 1987), which cites them from elsewhere.

The conditions of the data set: osteoporosis in humans; Reeve et al. 1980.

On to “hPTH (1-34): fragment of human parathyroid hormone: first thirty-four amino acid residues (SVSEIQLMHNLGKHLNSMERVEWLRKKLQDVHNF; Parathyroid hormone; UniProt P01270 32-65, looked up, fragment)”, for which the axial trabecular bone result is given as “considerable increase”; the “calcium retention, and hence total bone mass” value was “improved in only about half of these patients”.
